ChEMBL document CHEMBL5465560, “Selectivity Literature for EUbOPEN Chemogenomic Library” (2024)

Legend:
[1] = target: T1, Rho-associated protein kinase 2 (Homo sapiens, UniProt O75116); assay: Selectivity interaction (Kinase panel (Z-LYTE Assay)) EUB0001632a ROCK2; conditions: at 10 µM
[2] = target: T2, Protein kinase C zeta type (Homo sapiens) (UniProt Q05513); assay: Selectivity interaction (ProQinase) EUB0000171b PRKCZ; conditions: at 5 µM
T2 sequence (whole entry): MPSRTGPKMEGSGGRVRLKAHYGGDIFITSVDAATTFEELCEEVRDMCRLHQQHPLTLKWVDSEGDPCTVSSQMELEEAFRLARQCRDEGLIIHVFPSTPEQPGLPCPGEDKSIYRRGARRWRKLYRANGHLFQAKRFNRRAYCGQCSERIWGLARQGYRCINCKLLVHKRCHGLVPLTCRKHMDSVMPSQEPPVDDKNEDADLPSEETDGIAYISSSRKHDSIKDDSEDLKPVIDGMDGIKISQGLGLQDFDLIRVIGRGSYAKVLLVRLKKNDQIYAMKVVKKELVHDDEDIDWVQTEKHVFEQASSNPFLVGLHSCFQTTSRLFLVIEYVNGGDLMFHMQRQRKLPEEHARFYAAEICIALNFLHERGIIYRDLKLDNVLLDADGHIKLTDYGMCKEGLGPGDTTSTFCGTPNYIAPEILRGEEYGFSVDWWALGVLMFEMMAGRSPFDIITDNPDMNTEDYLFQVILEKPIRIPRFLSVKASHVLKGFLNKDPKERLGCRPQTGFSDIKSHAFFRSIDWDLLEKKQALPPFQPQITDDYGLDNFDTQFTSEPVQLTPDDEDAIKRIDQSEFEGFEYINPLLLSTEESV

[3] = target: T3, Serine/threonine-protein kinase ULK3 (Homo sapiens) (UniProt Q6PHR2); assay: Selectivity interaction (ActivX KiNativ screen (ex vivo kinase selectivity in human PBMCs)) EUB0001619a ULK3; assay type: cell-based; conditions: PBMC, at 1 µM
T3 sequence (whole entry): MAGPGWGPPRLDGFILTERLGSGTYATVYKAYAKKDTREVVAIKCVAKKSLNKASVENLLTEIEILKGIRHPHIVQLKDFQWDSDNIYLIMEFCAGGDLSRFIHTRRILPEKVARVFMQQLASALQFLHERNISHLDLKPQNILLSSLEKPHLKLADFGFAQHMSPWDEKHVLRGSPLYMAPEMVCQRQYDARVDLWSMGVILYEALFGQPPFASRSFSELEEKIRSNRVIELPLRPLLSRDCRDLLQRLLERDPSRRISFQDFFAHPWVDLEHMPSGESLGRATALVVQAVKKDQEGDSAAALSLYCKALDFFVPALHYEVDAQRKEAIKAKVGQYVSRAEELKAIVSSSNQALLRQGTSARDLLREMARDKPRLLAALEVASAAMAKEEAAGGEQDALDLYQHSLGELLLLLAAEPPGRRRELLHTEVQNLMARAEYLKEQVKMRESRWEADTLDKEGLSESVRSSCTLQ

[4] = target: T4, Serine/threonine-protein kinase LATS2 (Homo sapiens) (UniProt Q9NRM7); assay: Selectivity interaction (KinomeScan (DiscoverX)) EUB0000607a LATS2; conditions: at 10 µM
T4 sequence (whole entry): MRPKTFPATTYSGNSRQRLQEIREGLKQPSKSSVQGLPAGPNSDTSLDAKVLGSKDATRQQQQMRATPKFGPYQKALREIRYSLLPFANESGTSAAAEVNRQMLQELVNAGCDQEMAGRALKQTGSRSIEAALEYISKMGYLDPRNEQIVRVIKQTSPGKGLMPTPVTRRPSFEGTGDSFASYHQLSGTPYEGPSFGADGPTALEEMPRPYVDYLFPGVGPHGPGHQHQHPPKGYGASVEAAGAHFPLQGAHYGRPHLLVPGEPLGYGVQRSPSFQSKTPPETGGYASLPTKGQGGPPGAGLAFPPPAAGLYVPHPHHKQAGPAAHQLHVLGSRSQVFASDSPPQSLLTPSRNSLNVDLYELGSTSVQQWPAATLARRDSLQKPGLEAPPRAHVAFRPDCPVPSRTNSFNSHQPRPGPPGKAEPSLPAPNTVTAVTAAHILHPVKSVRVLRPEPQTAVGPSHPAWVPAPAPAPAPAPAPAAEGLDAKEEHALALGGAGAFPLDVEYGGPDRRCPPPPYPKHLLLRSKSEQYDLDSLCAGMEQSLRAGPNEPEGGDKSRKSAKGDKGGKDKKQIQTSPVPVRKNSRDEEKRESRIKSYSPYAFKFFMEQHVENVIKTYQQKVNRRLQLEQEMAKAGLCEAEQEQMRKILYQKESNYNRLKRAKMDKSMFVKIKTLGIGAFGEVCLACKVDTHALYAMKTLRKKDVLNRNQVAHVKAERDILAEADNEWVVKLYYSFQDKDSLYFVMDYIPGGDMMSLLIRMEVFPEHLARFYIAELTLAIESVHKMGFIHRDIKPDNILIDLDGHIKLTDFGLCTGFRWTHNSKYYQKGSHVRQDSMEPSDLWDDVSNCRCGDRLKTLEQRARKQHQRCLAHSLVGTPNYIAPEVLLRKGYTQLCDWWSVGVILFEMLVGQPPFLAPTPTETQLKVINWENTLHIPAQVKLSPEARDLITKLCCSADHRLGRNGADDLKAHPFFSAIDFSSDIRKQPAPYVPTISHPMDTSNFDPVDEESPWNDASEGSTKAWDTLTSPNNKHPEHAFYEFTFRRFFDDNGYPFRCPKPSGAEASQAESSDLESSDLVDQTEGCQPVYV

[5] = target: T1, Rho-associated protein kinase 2; assay: Selectivity interaction (KinomeScan (DiscoverX)) EUB0000618a ROCK2; conditions: at 10 µM

T1 sequence (O75116 whole entry, looked up): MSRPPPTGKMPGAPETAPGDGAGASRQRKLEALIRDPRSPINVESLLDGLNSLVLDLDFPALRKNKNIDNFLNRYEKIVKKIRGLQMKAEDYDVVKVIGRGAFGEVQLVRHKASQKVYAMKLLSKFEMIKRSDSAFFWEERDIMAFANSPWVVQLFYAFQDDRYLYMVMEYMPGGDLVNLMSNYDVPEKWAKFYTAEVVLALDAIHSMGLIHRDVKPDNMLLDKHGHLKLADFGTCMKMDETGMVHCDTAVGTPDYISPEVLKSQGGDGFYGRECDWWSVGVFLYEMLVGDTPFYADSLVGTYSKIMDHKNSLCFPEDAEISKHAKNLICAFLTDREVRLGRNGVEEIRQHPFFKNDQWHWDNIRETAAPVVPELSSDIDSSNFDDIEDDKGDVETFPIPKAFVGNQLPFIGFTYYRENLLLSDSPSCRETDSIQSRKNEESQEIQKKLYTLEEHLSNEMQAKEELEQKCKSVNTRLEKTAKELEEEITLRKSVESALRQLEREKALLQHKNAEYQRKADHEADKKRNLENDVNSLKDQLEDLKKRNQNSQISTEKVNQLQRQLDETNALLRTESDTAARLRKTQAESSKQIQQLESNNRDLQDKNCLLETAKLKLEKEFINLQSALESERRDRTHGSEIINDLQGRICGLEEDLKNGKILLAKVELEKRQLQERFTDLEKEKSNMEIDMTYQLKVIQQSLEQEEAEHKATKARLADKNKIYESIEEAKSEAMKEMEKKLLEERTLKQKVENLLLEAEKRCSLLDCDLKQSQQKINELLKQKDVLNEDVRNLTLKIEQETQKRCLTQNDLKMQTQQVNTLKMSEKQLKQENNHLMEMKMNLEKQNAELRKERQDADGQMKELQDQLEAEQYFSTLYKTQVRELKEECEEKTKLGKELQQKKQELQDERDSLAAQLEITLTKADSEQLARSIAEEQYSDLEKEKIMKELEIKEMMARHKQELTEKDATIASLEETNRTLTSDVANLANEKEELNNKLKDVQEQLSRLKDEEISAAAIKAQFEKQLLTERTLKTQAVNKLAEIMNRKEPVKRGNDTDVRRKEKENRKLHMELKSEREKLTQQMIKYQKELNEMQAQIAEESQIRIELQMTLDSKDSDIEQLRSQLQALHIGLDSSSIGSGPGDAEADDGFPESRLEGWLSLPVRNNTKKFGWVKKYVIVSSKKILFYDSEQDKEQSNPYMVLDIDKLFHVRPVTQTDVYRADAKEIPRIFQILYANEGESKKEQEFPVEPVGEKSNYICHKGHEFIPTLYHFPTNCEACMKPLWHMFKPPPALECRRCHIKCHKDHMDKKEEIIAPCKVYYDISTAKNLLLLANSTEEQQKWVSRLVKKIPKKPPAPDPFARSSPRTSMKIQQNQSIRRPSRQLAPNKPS

With `Cn1cc(-n2cnc3c(NCc4nc5cc(Cl)c(Cl)cc5[nH]4)nc(N4CCOCC4)nc32)cn1` the % of control [1] was 3.57%.

`C=CC(=O)Nc1cccc(C(=O)Nc2ccc(Nc3cc(-c4[nH]c(SC)nc4C)ccn3)cc2)c1` was tested, and the % of control [2] was 68%.

For `N#Cc1cccc(-c2c[nH]c3ncnc(N4CCOCC4)c23)c1`, the % of inhibition [3] was 5%.

`CNC(=O)Nc1ccc(-c2nc(N3CC4CCC(C3)O4)c3cnn(C4CCC5(CC4)OCCO5)c3n2)cc1` showed a % of control [4] of 76%.

With `O[C@H]1CC[C@H](Nc2ncc3nc(Nc4c(F)cc(F)cc4F)n([C@H]4CCOC4)c3n2)CC1` the % of control [5] was 100%.
